Experimental data reported in patent US11548925B2, “CACNA1H-derived tumor antigen polypeptide and use thereof” (Genoimmune Therapeutics Co., Ltd., priority 2016, dated 2023).

Test system: H2087-TLISSLMPI (SEQ ID NO: 2) subcutaneous tumor
Experiment: DC vaccine infected with recombinant lentivirus containing peptide gene in H2087-[…] tumor model
Type: in vivo, NOD/SCID mice
Details: DC infected with lentivirus carrying peptide gene, 2 injections
Description: The following DNA sequences were synthesized: “[…]” (SEQ ID NO: 8), encoding the wild-type peptide […] (SEQ ID NO: 1); “[…]” (SEQ ID NO: 9), encoding the mutant peptide […] (SEQ ID NO: 2); “[…]” (SEQ ID NO: 10), encoding the SEQ ID NO: 2 […]'s variant peptide […] (SEQ ID NO: 3); “[…]” (SEQ ID NO: 11), encoding the SEQ ID NO: 2 […]'s variant peptide […] (SEQ ID NO: 4); “[…]” (SEQ ID NO: 12), encoding the SEQ ID NO: 2 […]'s variant peptide […] (SEQ ID NO: 5); “[…]” (SEQ ID NO: 13), encoding the SEQ ID NO: 2 […]'s variant peptide […] (SEQ ID NO: 6); and “[…]” (SEQ ID NO: 14), encoding the SEQ ID NO: 2_[…]'s variant peptide […] (SEQ ID NO: 7). The wild-type peptide […] (SEQ ID NO: 1), the mutant peptide […] (SEQ ID NO: 2) and the mutant peptide SEQ ID NO: 2 […]'s variant peptides were constructed into the lentiviral vector pHBLV-Puro, respectively, to name as pHBLV-Puro-[…] (SEQ ID NO: 1), pHBLV-Puro-[…] (SEQ ID NO: 2), pHBLV-Puro-[…] (SEQ ID NO: 3), pHBLV-Puro-[…] (SEQ ID NO: 4), pHBLV-Puro-[…] (SEQ ID NO: 5), pHBLV-Puro-[…] (SEQ ID NO: 6) and pHBLV-Puro-[…] (SEQ ID NO: 7), respectively. The seven lentiviral constructs were co-transfected into 293T cells with helper plasmids pSPAX2 and pMD2G for packaging, and lentiviruses of the wild-type peptide […] (SEQ ID NO: 1), the mutant peptide […] (SEQ ID NO: 2) and the mutant peptide's variant peptides were obtained.
600-900 ml of anticoagulated peripheral blood was collected from healthy volunteers for isolating peripheral blood mononuclear cells (PBMCs) via Ficoll. Cells were collected for use. 2×10^7 PBMCs per 0.5 ml was intraperitoneally injected into each of 300 NOD SCID mice without immune leakage to perform human immune reconstitution in NOD SCID mice. […]
The human non-small cell lung adenocarcinoma cell line H2087-[…] […] The long diameter a and the short diameter b of the tumor were measured with a vernier caliper every 2-3 days and the size of the tumor was calculated as a*b*b/2. The mice and tumors were weighed and recorded every day. […] The tumor volume and the survival rate of mice were recorded every 2 days. […]

**Q.** Which results are given for “TLISSLMPI [tumor antigen peptide from CACNA1H mutation, position 1428 arginine to methionine]”?
**A.** Tumor-suppressing effect: significant tumor-suppressing effects; Survival period of mice (vs wild-type peptide group): prolonged the survival period of mice
